Assay results: patent publication US20260327211A1, “MODULATORS OF A POTASSIUM CHANNEL AND OF TRPV1 CHANNEL AND USES THEREOF” (Bsense Bio Therapeutics Ltd., priority 2023, published 2026)

How the values were obtained:
[1] = test system: Post-operative Pain (POP) rats; test: Post-operative Pain model, mechanical PWT; format: in vivo, rat; settings: 100 mg/kg, 6 hours post-dose
Protocol: All animal experiments were carried out according to the Guide for the Care and Use of Laboratory Animals (2011 edition) and approved by the Israel National Institutional Animal Care and Use Committee (IACUC). Young adult male SD rats (Envigo RMS, Israel), were used for in vivo efficacy: Spared Nerve Injury (SNI), Distal Tibial Injury (DTI) and Post-operative Pain (POP), 200-220 grams, Chronic Post-Ischemia Pain (CPIP) 275-325 grams, Monosodium iodoacetate-induced osteoarthritis (MIA-OA) 180-220 grams; for in vivo safety: 200-250 grams at study initiation. […] The health status of the animals used in this study was examined upon their arrival. Only animals in good health were acclimatized to laboratory conditions and were used in the studies. All studies were performed following at least five days of animal acclimation. During acclimation and throughout the entire study duration, animals were housed within a limited-access rodent facility and kept in groups with a maximum of 2-3 rats per polypropylene cage. The cages were fitted with solid bottoms and filled with sterile wood shavings as bedding material. […] Water was monitored periodically. […]
Post-operative Pain (POP): For this model, animals were anesthetized by medetomidine/ketamine sodium IP. […] On the following day, animal responses to von Frey (VF) filaments and hot-plate testing were recorded. […]

98 targets = test: Functional screening panel, 98 targets
Bradykynin B1-2 = test: Functional screening panel, Bradykynin B1-2; format: biochemical; settings: up to 10 micromolar
Protocol: (§1) A broad panel of 78 recombinant targets was tested for pharmacologic activity in vitro through a variety of functional assays (Eurofins DiscoverX, USA), as part of the National Institute of Neurological Disorders and Stroke (NINDS) Preclinical Screening Platform for Pain (PSPP) program. The biological targets for the in vitro profiling have been selected based on avoiding opioid receptor stimulation and targets known to be associated with adverse events or targeted by drugs of abuse. […] For each test, a reference compound was evaluated at the target of interest as a positive control.

BCRP = test: Transporter substrate, BCRP; format: in vitro ADME; settings: role: substrate
Protocol: Additionally, compound 760 was tested for its capability to act as a transporter substrate for various transporters, and was not found to be a transporter substrate for any of the tested transporters.

Cannabinoid CB1-2 = test: Functional screening panel, Cannabinoid CB1-2; format: biochemical; settings: up to 10 micromolar
Protocol: as §1

Structure (SMILES)	Mechanical PWT [1]	Off-target effect profile (98 targets)	Effect on Bradykynin B1-2 (Bradykynin B1-2)	BCRP substrate (BCRP)	Effect on Cannabinoid CB1-2 (Cannabinoid CB1-2)
O=C(Cc1cncc(-n2cc(Cl)c3cc(Cl)cc(Cl)c32)c1)N[C@@H]1COC[C@H]1O [Compound 661]	did not affect the mechanical PWT	–	–	–	–
O=C(Cc1nccc(-n2cc(Cl)c3cc(Cl)cc(Cl)c32)n1)NC1COCC1O (centres unmarked) [Compound 760]	–	clean off-target effect profile	no effect	not a transporter substrate or a poor substrate	no effect
